Consider 3 compounds from patent US20060045906A1, “Compositions and methods for activating protein synthesis and deactivating catabolic processes in skeletal muscle” (priority 2004, published 2006).

Several values for one entry are separate records, joined by “and”; a condition that tells them apart may be missing. Equal entries are not always repeated.

The test system of one data set is serum insulin. As to the kind of experiment: Serum insulin concentration and area under the concentration time curve after oral challenge (nasogastric) in healthy male volunteers. In kind it is in vivo, human. The procedure:
(§1) Measurement of creatine levels in the plasma preferably involves removing venous blood from the dorsal surface of a heated hand immediately before and 20, 40, and 60 min after the ingestion of a supplement. In addition, urine may be collected before and on the day of ingestion of a supplement. Plasma and urine creatine may be measured using high performance liquid chromatography and serum insulin was measured using a radioimmunoassay technique, an example of which is described in U.S. Pat. No. 5,968,900, which is fully incorporated herein by reference.
Aim: The aim of this study was to identify a supplement that would optimize the augmentation of Cr retention after its supplementation, by increasing the insulinotropic effect, whilst consuming a lower carbohydrate load.
Study design: Randomized, double-blind, placebo controlled, cross-over design.
Volunteers: 7 healthy male volunteers. All volunteers were eligible to participate after satisfactory results from the medical screening.
(§2) Protocol: The volunteers were required to attend to the lab for 3 trials. Each consisted of an afternoon arm, and a morning arm. Each arm lasted for approximately 4 hours. The volunteers were asked to relax on a bed. A baseline blood sample was taken. Each solution was administered via a nasogastric tube (mean time of administration was approximately 7 minutes). Half-way through the administration, the stop clock was started. After the three hour protocol, a second solution was administered. The third solution was administered in the following morning arm of the trial. Each trial was separated by at least 12 days.
(§3) Each solution was administered via a nasogastric tube three times over 24 hours. A total amount of 15 g or Cr was administered.
Blood sampling: Blood samples were collected for three hours after administration of the solution. Eleven blood samples obtained (including baseline sample). For the first hour after administration of the solution, a blood sample was obtained at 15 minute intervals. During the second and third hour of sampling, the intervals were increased to 20 minutes. Approximately 3 ml of blood was transferred to a lithium heparin containing tube and a further 3 ml were allowed to clot for plasma Cr and creatinine (Crn), and serum insulin analysis respectively.
Statistical analysis: A two-way repeated measure ANOVA statistical test was used. Significance was set at p<0.05. When a significant difference was observed, Fisher's post hoc analysis was performed in order to locate the difference. All individual results are included in the appendix.

The conditions of data set [1]: human, in vivo. The procedure: as §1, §2, §3
Blood sampling: Blood samples were collected for three hours after administration of the solution. […]

The nature of data set [2]: Urinary creatine excretion (24 h collections: 0-24, 24-48, 0-48 h) after administration of the solutions. Conditions: p<0.05. The format is in vivo, human. As for the experimental part:
as §1
Urinary Creatine Content:
Three 24 h hour urinary collections were obtained from each volunteer for each arm of the study. The first collection (baseline) was completed prior to administration of the solution. The second collection (0-24 h) was initiated immediately after the administration of the first solution, until 24 h post administration. […] The volume of the urine excreted was recorded and a 5 ml sample was frozen at −20° C. until analysis. The samples were analyzed for Cr and Crn.
To calculate the total creatine (TCr) the Cr and Crn were added together. The TCr increase was calculated by subtracting the baseline TCr from the 0-24 h excretion and/or the 24-48 h excretion. The 0-48 h content was calculated by adding the 0-24 h TCr with the 24-48 h TCr increase in excretion. […]

The subject of data set [3] is skeletal muscle total creatine. Conditions: cited from earlier work.

Consider `CN(CC(=O)O)C(=N)N` [C, creatine], for which the “serum insulin concentration compared to PAC” value with serum insulin (FIG. 1, first oral challenge, from 15-140 min) was “significantly lower”. Moreover, in the data set with serum insulin (FIG. 1, first oral challenge, from 15-160 min), the “serum insulin concentration compared to CHO” value is reported as “significantly lower”. In the data set on serum insulin (FIG. 2, third oral challenge, from 15-160 min), the “serum insulin concentration compared to CHO and PAC” value was “significantly lower”. The “serum insulin AUC compared to CHO and PAC” value is recorded as “significantly lower” in the data set with serum insulin (FIG. 3, 80 min following the first oral challenge, p=0.02); “significantly lower” in the data set on serum insulin (FIG. 4, 180 min following the first oral challenge, p=0.015); “significantly lower” in the data set with serum insulin (FIG. 5, 80 min following the third oral challenge, p<0.001); “significantly lower” with serum insulin (FIG. 6, 180 min following the first oral challenge (so in the source), p<0.001). For the same compound, the “insulin area under the time curve response” value is −235 mU/l/min and −127 mU/l/min and −112 mU/l/min and −166 mU/l/min and −146 mU/l/min and −714 mU/l/min and −566 mU/l/min in the data set with serum insulin (first oral challenge, 0-80 min (as headed), individual subject); −295 mU/l/min in the data set with serum insulin (first oral challenge, 0-80 min (as headed), mean of 7 subjects); −32 mU/l/min and −48 mU/l/min and −50 mU/l/min and 21 mU/l/min and −11 mU/l/min and −299 mU/l/min and −186 mU/l/min in the data set with serum insulin (first oral challenge, 0-180 min (as headed), individual subject); −86 mU/l/min in the data set with serum insulin (first oral challenge, 0-180 min (as headed), mean of 7 subjects); 10 mU/l/min (2×) and −7 mU/l/min and −23 mU/l/min and 132 mU/l/min and −34 mU/l/min and −18 mU/l/min in the data set with serum insulin (third oral challenge, 0-80 min, individual subject); 10 mU/l/min with serum insulin (third oral challenge, 0-80 min, mean of 7 subjects). In addition, the “insulin area under the time curve response” value is 274 mU/l/min (2×) and −63 mU/l/min and −109 mU/l/min and 195 mU/l/min and 1406 mU/l/min and −99 mU/l/min with serum insulin (third oral challenge, 0-180 min, individual subject); 268 mU/l/min in the data set with serum insulin (third oral challenge, 0-180 min, mean of 7 subjects). For the same compound, the serum insulin concentration with serum insulin (first oral challenge, 45 min, individual subject) was 9.02 mU/l and 7.85 mU/l and 9.58 mU/l and 10.16 mU/l and 9.61 mU/l and 9.34 mU/l and 11.85 mU/l; in the data set on serum insulin (first oral challenge, 45 min, mean of 7 subjects), 9.63 mU/l; in the data set on serum insulin (first oral challenge, 60 min, individual subject), 9.17 mU/l and 7.54 mU/l and 9.74 mU/l and 8.51 mU/l; with serum insulin (third oral challenge, 0 min, individual subject), 8.91 mU/l (2×) and 8.31 mU/l and 10.38 mU/l and 9.64 mU/l and 10.31 mU/l and 8.65 mU/l; with serum insulin (third oral challenge, 0 min, mean of 7 subjects) it was 9.30 mU/l; with serum insulin (third oral challenge, 15 min, individual subject) it was 8.94 mU/l (2×) and 7.78 mU/l and 10.23 mU/l and 9.84 mU/l and 10.29 mU/l and 11.08 mU/l. Also, the serum insulin concentration in the data set on serum insulin (third oral challenge, 15 min, mean of 7 subjects) is 9.59 mU/l; in the data set on serum insulin (third oral challenge, 30 min, individual subject), 9.44 mU/l (2×) and 7.90 mU/l and 10.92 mU/l and 10.89 mU/l and 9.80 mU/l and 11.61 mU/l; with serum insulin (third oral challenge, 30 min, mean of 7 subjects) it was 10.00 mU/l; in the data set with serum insulin (third oral challenge, 45 min, individual subject), 8.87 mU/l (2×) and 7.24 mU/l and 9.56 mU/l and 9.07 mU/l and 10.07 mU/l and 9.32 mU/l; in the data set with serum insulin (third oral challenge, 45 min, mean of 7 subjects), 9.00 mU/l; in the data set with serum insulin (third oral challenge, 60 min, individual subject) it was 8.92 mU/l (2×) and 7.99 mU/l and 10.03 mU/l and 8.61 mU/l and 9.69 mU/l and 10.81 mU/l. Further, the serum insulin concentration with serum insulin (third oral challenge, 60 min, mean of 7 subjects) is 9.28 mU/l; in the data set with serum insulin (third oral challenge, 80 min, individual subject) it was 9.06 mU/l (2×) and 8.54 mU/l and 9.79 mU/l and 9.45 mU/l and 10.22 mU/l and 8.93 mU/l; in the data set with serum insulin (third oral challenge, 80 min, mean of 7 subjects), 9.29 mU/l; in the data set with serum insulin (third oral challenge, 100 min, individual subject), 8.54 mU/l (2×) and 8.56 mU/l and 9.59 mU/l (2×) and 9.34 mU/l and 9.38 mU/l; in the data set on serum insulin (third oral challenge, 100 min, mean of 7 subjects) it was 9.08 mU/l; in the data set with serum insulin (third oral challenge, 120 min, individual subject), 8.76 mU/l (2×) and 8.20 mU/l and 10.07 mU/l and 8.48 mU/l and 10.27 mU/l and 9.10 mU/l. Moreover, the serum insulin concentration in the data set with serum insulin (third oral challenge, 120 min, mean of 7 subjects) was 9.09 mU/l; in the data set with serum insulin (third oral challenge, 140 min, individual subject) it was 8.29 mU/l (2×) and 8.44 mU/l and 8.57 mU/l and 8.55 mU/l and 8.56 mU/l and 9.20 mU/l; with serum insulin (third oral challenge, 140 min, mean of 7 subjects), 8.56 mU/l; with serum insulin (third oral challenge, 160 min, individual subject), 8.69 mU/l (2×) and 8.34 mU/l and 8.66 mU/l and 10.01 mU/l and 9.02 mU/l and 9.73 mU/l; with serum insulin (third oral challenge, 160 min, mean of 7 subjects), 9.02 mU/l; with serum insulin (third oral challenge, 180 min, individual subject) it was 8.58 mU/l (3×) and 8.61 mU/l and 8.56 mU/l and 9.43 mU/l and 9.04 mU/l. The same compound returned a serum insulin concentration in the data set with serum insulin (third oral challenge, 180 min, mean of 7 subjects) of 8.77 mU/l. In data set [1], the “plasma creatine AUC compared to CHO and PAC” value is listed as “significantly greater”. Also, the “urinary creatine content compared to CHO and PAC” value in data set [2] (FIG. 11, 0-24 h) is listed as “significantly greater”; in data set [2] (FIG. 13, 0-48 h following supplementation), “significantly greater”.

On to `CN(CC(=O)O)C(=N)N` [carbohydrate free creatine, creatine], for which the “increase of total muscle creatine” value in data set [3] (5 g creatine four times a day for 5 days) is “about 20 mmol/kg dm”.

Turning to `CN(CC(=O)O)C(=N)N` [creatine, N-methyl-N-guanyl glycine], the “increase of muscle total creatine content, on average” value in data set [3] (20 g/day for 5 days) was 20%. Moreover, the “increase in human skeletal muscle total creatine (phosphocreatine and free creatine) stores” value in data set [3] (dietary creatine supplementation) is on record as 20-50%.
